Results published in ChEMBL document CHEMBL4196108, “5-Aroylindoles Act as Selective Histone Deacetylase 6 Inhibitors Ameliorating Alzheimer's Disease Phenotypes” (J Med Chem, 2018).

Assays:
Histone deacetylase 2 = Histone deacetylase 2 (Homo sapiens, UniProt Q92769); assay: Inhibition of human HDAC2 using RHKKAc peptide as substrate
[1] = biological target: T1, Protein deacetylase HDAC6 (Homo sapiens, UniProt Q9UBN7); assay: Inhibition of human HDAC6 using RHKKAc peptide as substrate
T1 sequence (Q9UBN7 whole entry): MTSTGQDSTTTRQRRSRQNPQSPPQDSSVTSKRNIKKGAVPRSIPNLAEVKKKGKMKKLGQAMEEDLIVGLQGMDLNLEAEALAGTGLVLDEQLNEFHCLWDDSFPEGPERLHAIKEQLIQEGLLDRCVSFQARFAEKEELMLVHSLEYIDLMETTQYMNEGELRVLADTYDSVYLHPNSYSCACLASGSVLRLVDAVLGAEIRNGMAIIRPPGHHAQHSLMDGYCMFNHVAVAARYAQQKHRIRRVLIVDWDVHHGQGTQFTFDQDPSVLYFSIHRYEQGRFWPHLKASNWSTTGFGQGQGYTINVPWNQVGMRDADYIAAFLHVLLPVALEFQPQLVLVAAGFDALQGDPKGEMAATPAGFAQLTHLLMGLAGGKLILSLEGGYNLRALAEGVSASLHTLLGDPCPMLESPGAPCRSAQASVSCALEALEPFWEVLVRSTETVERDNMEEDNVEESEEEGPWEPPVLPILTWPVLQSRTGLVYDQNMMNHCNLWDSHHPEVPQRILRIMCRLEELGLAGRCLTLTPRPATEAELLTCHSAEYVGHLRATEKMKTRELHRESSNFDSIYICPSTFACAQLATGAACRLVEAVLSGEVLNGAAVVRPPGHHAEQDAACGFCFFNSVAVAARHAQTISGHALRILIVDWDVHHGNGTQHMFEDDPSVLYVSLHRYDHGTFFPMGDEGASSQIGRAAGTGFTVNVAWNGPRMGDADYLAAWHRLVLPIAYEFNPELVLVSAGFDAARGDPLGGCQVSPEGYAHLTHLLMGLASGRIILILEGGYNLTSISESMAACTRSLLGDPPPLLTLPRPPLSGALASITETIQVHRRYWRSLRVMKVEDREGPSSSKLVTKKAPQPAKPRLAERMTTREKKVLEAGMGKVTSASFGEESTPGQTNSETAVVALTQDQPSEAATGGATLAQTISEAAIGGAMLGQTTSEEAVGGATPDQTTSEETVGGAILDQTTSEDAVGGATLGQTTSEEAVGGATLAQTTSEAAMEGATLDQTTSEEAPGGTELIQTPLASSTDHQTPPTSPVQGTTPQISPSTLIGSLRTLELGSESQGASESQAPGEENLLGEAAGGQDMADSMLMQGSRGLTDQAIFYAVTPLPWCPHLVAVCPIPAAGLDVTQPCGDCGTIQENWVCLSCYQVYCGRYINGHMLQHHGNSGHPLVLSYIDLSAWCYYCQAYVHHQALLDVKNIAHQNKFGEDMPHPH

Histone deacetylase 1 = Histone deacetylase 1 (Homo sapiens, UniProt Q13547); assay: Inhibition of human HDAC1 using RHKKAc peptide as substrate
Homo sapiens [2] = species on record: Homo sapiens; assay: Selectivity index, ratio of IC50 for human HDAC3 to IC50 for human HDAC6
Homo sapiens [3] = species on record: Homo sapiens; assay: Selectivity index, ratio of IC50 for human HDAC8 to IC50 for human HDAC6
[4] = biological target: T2, Polyamine deacetylase HDAC10 (Homo sapiens, UniProt Q969S8); assay: Inhibition of human HDAC10 using RHKKAc peptide as substrate
T2 sequence (Q969S8 whole entry): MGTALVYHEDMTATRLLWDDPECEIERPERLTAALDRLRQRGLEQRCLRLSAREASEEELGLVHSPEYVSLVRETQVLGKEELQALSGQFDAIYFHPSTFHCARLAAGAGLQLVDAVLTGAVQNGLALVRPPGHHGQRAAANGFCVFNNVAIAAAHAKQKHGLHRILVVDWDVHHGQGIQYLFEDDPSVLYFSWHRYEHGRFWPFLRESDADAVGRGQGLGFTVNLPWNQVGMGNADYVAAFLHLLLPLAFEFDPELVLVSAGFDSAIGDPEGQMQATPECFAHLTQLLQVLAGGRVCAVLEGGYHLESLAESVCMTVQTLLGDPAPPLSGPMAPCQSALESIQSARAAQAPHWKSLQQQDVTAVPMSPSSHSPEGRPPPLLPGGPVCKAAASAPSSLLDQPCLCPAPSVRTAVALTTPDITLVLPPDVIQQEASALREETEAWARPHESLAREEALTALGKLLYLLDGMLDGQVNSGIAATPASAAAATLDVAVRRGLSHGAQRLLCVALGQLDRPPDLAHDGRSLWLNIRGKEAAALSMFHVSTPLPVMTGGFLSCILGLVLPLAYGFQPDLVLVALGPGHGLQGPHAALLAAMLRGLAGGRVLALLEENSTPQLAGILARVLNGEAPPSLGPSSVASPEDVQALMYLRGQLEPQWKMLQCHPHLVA

Homo sapiens [5] = species on record: Homo sapiens; assay: Selectivity index, ratio of IC50 for human HDAC10 to IC50 for human HDAC6
Homo sapiens [6] = species on record: Homo sapiens; assay: Selectivity index, ratio of IC50 for human HDAC1 to IC50 for human HDAC6
Homo sapiens [7] = species on record: Homo sapiens; assay: Selectivity index, ratio of IC50 for human HDAC2 to IC50 for human HDAC6
Histone deacetylase 8 = biological target: T3, Histone deacetylase 8 (Homo sapiens, UniProt Q9BY41); assay: Inhibition of human HDAC8 using RHKAcKAc peptide as substrate
T3 sequence (Q9BY41 whole entry): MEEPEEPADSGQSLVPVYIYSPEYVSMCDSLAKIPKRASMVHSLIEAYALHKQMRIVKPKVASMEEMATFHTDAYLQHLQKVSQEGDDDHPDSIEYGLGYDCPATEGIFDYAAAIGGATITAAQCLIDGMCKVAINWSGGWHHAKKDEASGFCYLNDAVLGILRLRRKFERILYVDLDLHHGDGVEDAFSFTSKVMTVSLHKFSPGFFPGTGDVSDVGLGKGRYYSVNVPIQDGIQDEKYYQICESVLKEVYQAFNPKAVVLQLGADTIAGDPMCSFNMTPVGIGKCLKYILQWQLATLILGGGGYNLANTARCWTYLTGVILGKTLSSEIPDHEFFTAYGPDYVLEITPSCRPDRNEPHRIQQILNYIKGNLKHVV

Histone deacetylase 3 = Histone deacetylase 3 (Homo sapiens, UniProt O15379)
Chain of Histone deacetylase 3 (O15379 whole entry): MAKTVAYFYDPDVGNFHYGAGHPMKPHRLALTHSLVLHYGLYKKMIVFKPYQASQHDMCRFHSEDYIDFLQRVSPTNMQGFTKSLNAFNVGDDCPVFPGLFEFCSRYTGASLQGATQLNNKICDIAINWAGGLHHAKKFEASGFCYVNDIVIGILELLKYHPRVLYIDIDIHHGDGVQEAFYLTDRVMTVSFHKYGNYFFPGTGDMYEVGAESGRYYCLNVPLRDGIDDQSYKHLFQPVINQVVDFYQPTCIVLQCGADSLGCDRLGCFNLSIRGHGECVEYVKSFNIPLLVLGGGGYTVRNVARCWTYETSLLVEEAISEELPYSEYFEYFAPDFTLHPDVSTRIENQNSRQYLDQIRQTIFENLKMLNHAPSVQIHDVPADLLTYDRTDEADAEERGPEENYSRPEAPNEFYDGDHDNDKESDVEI

Chain of Histone deacetylase 1 (Q13547 whole entry): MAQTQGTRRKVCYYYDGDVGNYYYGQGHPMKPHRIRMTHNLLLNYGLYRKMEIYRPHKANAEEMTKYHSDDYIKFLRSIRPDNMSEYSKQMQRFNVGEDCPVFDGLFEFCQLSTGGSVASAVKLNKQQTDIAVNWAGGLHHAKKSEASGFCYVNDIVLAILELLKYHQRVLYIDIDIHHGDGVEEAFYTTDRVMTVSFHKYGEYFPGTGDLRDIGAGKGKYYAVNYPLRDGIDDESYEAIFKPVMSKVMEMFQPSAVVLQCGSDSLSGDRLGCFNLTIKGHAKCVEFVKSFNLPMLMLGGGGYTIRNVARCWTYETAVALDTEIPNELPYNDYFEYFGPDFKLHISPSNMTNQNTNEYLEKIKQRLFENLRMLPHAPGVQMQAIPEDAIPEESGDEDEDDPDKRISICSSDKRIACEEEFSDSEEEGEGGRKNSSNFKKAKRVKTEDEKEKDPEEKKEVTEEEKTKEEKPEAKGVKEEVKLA
Chain of Histone deacetylase 2 (Q92769 whole entry): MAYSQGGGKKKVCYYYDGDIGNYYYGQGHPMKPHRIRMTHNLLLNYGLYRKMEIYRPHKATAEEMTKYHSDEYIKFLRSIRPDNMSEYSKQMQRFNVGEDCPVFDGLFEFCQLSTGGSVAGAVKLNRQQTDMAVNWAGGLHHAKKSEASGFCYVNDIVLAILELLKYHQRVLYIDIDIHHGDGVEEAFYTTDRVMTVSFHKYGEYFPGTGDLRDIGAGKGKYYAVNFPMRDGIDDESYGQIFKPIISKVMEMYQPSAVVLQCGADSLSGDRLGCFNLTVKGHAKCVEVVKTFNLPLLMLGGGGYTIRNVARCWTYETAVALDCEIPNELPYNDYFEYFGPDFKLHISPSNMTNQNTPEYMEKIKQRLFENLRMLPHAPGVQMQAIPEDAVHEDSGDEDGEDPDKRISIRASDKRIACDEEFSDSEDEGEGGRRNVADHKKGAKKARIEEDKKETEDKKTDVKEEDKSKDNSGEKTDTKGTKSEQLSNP

Compound | IC50 (Histone deacetylase 2) | IC50 [1] | IC50 (Histone deacetylase 1) | Ratio IC50 (Homo sapiens [2]) | Ratio IC50 (Homo sapiens [3]) | IC50 [4] | Ratio IC50 (Homo sapiens [5]) | Ratio IC50 (Homo sapiens [6]) | Ratio IC50 (Homo sapiens [7]) | IC50 (Histone deacetylase 8) | IC50 (Histone deacetylase 3)
COc1ccc(C(=O)c2ccc3c(ccn3S(=O)(=O)c3cccc(/C=C/C(=O)NO)c3)c2)cc1OC | 2.14 µM | 1.18 µM | 0.877 µM | 0.7 | 1.2 | 8.24 µM | 6.9 | 0.7 | 1.8 | 1.42 µM | 0.861 µM
Cc1ccc(C(=O)c2ccc3c(ccn3Cc3ccc(C(=O)NO)cc3)c2)cc1 | 7.25 µM | 0.0119 µM | 3.12 µM | 329 | 125 | > 100 µM | > 8400 | 262 | 609 | 1.49 µM | 3.91 µM
Cc1ccc(C(=O)c2ccc3c(ccn3S(=O)(=O)c3cccc(/C=C/C(=O)NO)c3)c2)cc1 | 7.27 µM | 2.75 µM | 1.42 µM | 0.3 | 1.6 | 9.1 µM | 3.3 | 0.5 | 2.6 | 4.48 µM | 0.891 µM
COc1ccc(C(=O)c2ccc3c(ccn3S(=O)(=O)c3ccc(/C=C/C(=O)NO)cc3)c2)cc1 | > 100 µM | 0.848 µM | 7.16 µM | 3.01 | 11.8 | > 100 µM | > 118 | 8.4 | > 118 | 10 µM | 2.56 µM
COc1cccc(C(=O)c2ccc3c(ccn3Cc3ccc(C(=O)NO)cc3)c2)c1 | 5.14 µM | 0.0164 µM | 3.79 µM | 310 | 68.3 | 47.9 µM | 2920 | 231 | 313 | 1.12 µM | 5.09 µM
COc1cc(C(=O)c2ccc3c(ccn3Cc3ccc(C(=O)NO)cc3)c2)cc(OC)c1OC | – | 1.54 µM | – | – | – | – | – | – | – | – | –
COc1cc(C(=O)c2ccc3c(ccn3Cc3ccc(/C=C/C(=O)NO)cc3)c2)cc(OC)c1OC | 5.74 µM | 0.143 µM | 3.48 µM | – | 15.2 | – | – | 24.3 | 40.1 | 2.17 µM | –
O=C(/C=C/c1cccc(S(=O)(=O)n2ccc3cc(C(=O)c4ccc(F)cc4)ccc32)c1)NO | 1.8 µM | 1.42 µM | 0.23 µM | 0.04 | 1.9 | 5.24 µM | 3.7 | 0.16 | 1.3 | 2.75 µM | 0.0596 µM
